In patent publication US6890708B2, “Method for improving the quality of sperm for artificial insemination of animals” (priority 2000, dated 2005):
Like-named read-outs stand apart in the source and are kept apart here.

Test system: Polymorphonuclear Neutrophils (PMN)
Test: In vitro phagocytosis of boar sperm by PMN (phagocytosis assay)
Type: cell-based, pig
Conditions: for % of phagocytosed sperm: Exp. 1; for inhibition at 200 µM / inhibition at 500 µM / inhibition at 1000 µM / inhibition at 2000 µM: Sus scrofa, Polymorphonuclear neutrophil, read-out: % inhibition (percentage decrease of phagocytosis relative to control)
Procedure: Tyrode's medium was used as described as “standard Tyrode's medium” in […] et al. ([…], Harrison, R A P, Miller, N G A, Topper, E K, and Woelders, H, 1998, Enhanced Binding of Zona Pellucida Proteins to the Acrosomal Region of Intact Boar Spermatozoa in Response to Fertilizing Conditions: A Flow Cytometric Study. […] Serum was prepared from blood collected from 11 primiparous sows, pooled, and frozen in aliquots at -80° C. Per experiment, 20 ml peripheral blood of a single Dutch Landrace sow (each experiment a different sow) was collected in heparinized vacutainers (Venoject, Omnilabo, Breda, The Netherlands). The peripheral blood was subsequently diluted with an equal volume of phosphate buffered saline (PBS). […] The supernatant, including the mononuclear cells at the interface, was removed. The pellet was resuspended in 2 ml of ice-cold distilled water to lyse the erythrocytes. […] The PMNs were pelleted by centrifugation for 10 min at 400×g and the lysis procedure was repeated. […] All cell suspensions were pooled together, mixed well, and subjected to centrifugation. The PMN were resuspended in TM-s with inactivated complement, and the cell concentration was determined using a hemocytometer. The PMN preparation was stored overnight at 4° C. […] The viability, assessed by trypan blue exclusion, was >98%. Semen was obtained from Dutch A.I. stations. Per experiment, semen was used from a single Yorkshire breeding boar (each experiment a different boar). At the AI-station, the semen was diluted to a concentration of approximately 30×10^6 cells/ml in Beltsville Thawing Solution (BTS) (Johnson et al., 1988). The diluted semen was stored at 17° C. for up to 48 hours, until the diluted semen sample was used. […] Aliquots of 80 μl of the PMN suspension (see, PMN isolation and preparation of PMNs) in TM or TM-s, with either intact or inactivated complement, were transferred to a 96-well polystyrene microtest plate. […] The samples were incubated with gentle swirling on a test plate shaker. […] The heparin facilitates dissociation of agglutinated PMNs. The samples were thoroughly mixed, left for 15 min., and mixed again. […] The frozen-thawed semen was taken from a large stock of semen from one ejaculate and washed 3 times in PBS prior to use. […] The mounts enabled observation and counting of fluorescently labeled spermatozoa inside and outside the phagocytes. By focusing at different levels in the mount, spermatozoa that were located above or below the PMN could be distinguished from those that were phagocytosed. In many PMNs that had ingested a spermatozoon, the presence of the sperm nucleus or tail caused a conspicuous change of the shape of the PMN. Two hundred spermatozoa were evaluated and classified as inside or outside the PMN (i.e., phagocytosed or not phagocytosed). The same fixed mounts were used to assess the acrosome morphology of the non-phagocytosed spermatozoa at the moment of fixation.

[1] = Exp. 2, 0.2 mM, without pre-incubation, 15 min
[2] = Exp. 2, 0.2 mM, without pre-incubation, 30 min
[3] = Exp. 2, 0.2 mM, without pre-incubation, 60 min
[4] = Exp. 2, 0.5 mM, after pre-incubation, 15
[5] = Exp. 2, 0.5 mM, after pre-incubation, 30
[6] = Exp. 2, 0.5 mM, after pre-incubation, 60
[7] = Exp. 2, 0.5 mM, without pre-incubation, 15 min
[8] = Exp. 2, 0.5 mM, without pre-incubation, 30 min
[9] = Exp. 2, 0.5 mM, without pre-incubation, 60 min
[10] = Exp. 2, 1 mM, after pre-incubation, 15
[11] = Exp. 2, 1 mM, after pre-incubation, 30
[12] = Exp. 2, 1 mM, after pre-incubation, 60
[13] = Exp. 2, 1 mM, without pre-incubation, 15 min
[14] = Exp. 2, 1 mM, without pre-incubation, 30 min
[15] = Exp. 2, 1 mM, without pre-incubation, 60 min
[16] = Exp. 2, 2 mM, after pre-incubation, 15
[17] = Exp. 2, 2 mM, after pre-incubation, 30
[18] = Exp. 2, 2 mM, after pre-incubation, 60
[19] = Exp. 2, 2 mM, without pre-incubation, 15 min
[20] = Exp. 2, 2 mM, without pre-incubation, 30 min
[21] = Exp. 2, 2 mM, without pre-incubation, 60 min
[22] = Exp. 3, 1 mM, pre-incubation of sperm 30 min. at 38° C., 15 min
[23] = Exp. 3, 1 mM, pre-incubation of sperm 30 min. at 38° C., 30 min
[24] = Exp. 3, 1 mM, pre-incubation of sperm 30 min. at 38° C., 60 min

**Q.** Which “phagocytosis of sperm by PMN in vitro, in words” value does the source give for Cn1c(=O)c2c(ncn2C)n(C)c1=O [caffeine, 1,3,7-Trimethylxanthine] here?
**A.** The value was “decreased”.

**Q.** And the “% of phagocytosed sperm” value (1 mM, without pre-incubation, 1st value column, head not printed)?
**A.** Its value is 20%.

**Q.** And the “% of phagocytosed sperm” value (1 mM, without pre-incubation, 2nd value column, head not printed)?
**A.** The value was 22%.

**Q.** And the “% of phagocytosed sperm” value (1 mM, without pre-incubation, 3rd value column, head not printed)?
**A.** Its value is 18%.

**Q.** And the “% of phagocytosed sperm” value (2 mM, preincubated 30 min. at 38° C., phagocytosis time 15 min)?
**A.** Its value is 22%.

**Q.** And the “% of phagocytosed sperm” value (2 mM, preincubated 30 min. at 38° C., phagocytosis time 30 min)?
**A.** The value was 15%.

**Q.** What about the “% of phagocytosed sperm” value (2 mM, preincubated 30 min. at 38° C., phagocytosis time 60 min) of the same compound?
**A.** Its value is 29%.

**Q.** What about the “% of phagocytosed sperm” value (2 mM, preincubated 30 min. at 38° C., phagocytosis time 90 min) of the same compound?
**A.** Its value is 20%.

**Q.** What about the “% phagoc. sperm” value [1] of the same compound?
**A.** Its value is 48%.

**Q.** And the “% phagoc. sperm” value [2]?
**A.** The value was 73%.

**Q.** What about the “% phagoc. sperm” value [3] of the same compound?
**A.** The value was 75%.

**Q.** What about the “% phag. Sperm” value [4] of the same compound?
**A.** Its value is 29%.

**Q.** And the “% phag. Sperm” value [5]?
**A.** The value was 28%.

**Q.** What about the “% phag. Sperm” value [6] of the same compound?
**A.** Its value is 42%.

**Q.** And the “% phagoc. sperm” value [7]?
**A.** Its value is 40%.

**Q.** What about the “% phagoc. sperm” value [8] of the same compound?
**A.** Its value is 67%.

**Q.** What about the “% phagoc. sperm” value [9] of the same compound?
**A.** The value was 68%.

**Q.** And the “% phag. Sperm” value [10]?
**A.** The value was 14%.

**Q.** And the “% phag. Sperm” value [11]?
**A.** The value was 26%.

**Q.** And the “% phag. Sperm” value [12]?
**A.** The value was 24%.

**Q.** What about the “% phagoc. sperm” value [13] of the same compound?
**A.** The value was 29%.

**Q.** What about the “% phagoc. sperm” value [14] of the same compound?
**A.** The value was 58%.

**Q.** What about the “% phagoc. sperm” value [15] of the same compound?
**A.** The value was 62%.

**Q.** And the “% phag. Sperm” value [16]?
**A.** Its value is 9%.

**Q.** What about the “% phag. Sperm” value [17] of the same compound?
**A.** Its value is 17%.

**Q.** And the “% phag. Sperm” value [18]?
**A.** The value was 21%.

**Q.** And the “% phagoc. sperm” value [19]?
**A.** The value was 28%.

**Q.** What about the “% phagoc. sperm” value [20] of the same compound?
**A.** The value was 51%.

**Q.** What about the “% phagoc. sperm” value [21] of the same compound?
**A.** The value was 56%.

**Q.** What about the “% phag. Sperm” value [22] of the same compound?
**A.** Its value is 32%.

**Q.** What about the “% phag. Sperm” value [23] of the same compound?
**A.** The value was 45%.

**Q.** What about the “% phag. Sperm” value [24] of the same compound?
**A.** Its value is 56%.

**Q.** And the “phagocytosis of sperm, in words” value (Exp. 4, caffeine added to the semen extender the day before use)?
**A.** The value was “inhibits phagocytosis after one day”.

**Q.** And the “phagocytosis of sperm by PMN in vitro, in words” value (Exp. 5, 1 mM)?
**A.** The value was “reduced the phagocytosis of sperm by PMN in vitro”.

**Q.** What about the inhibition at 200 µM [1] of the same compound?
**A.** The inhibition at 200 µM was 9%.

**Q.** What about the inhibition at 200 µM [2] of the same compound?
**A.** The inhibition at 200 µM was 4%.

**Q.** What about the inhibition at 200 µM [3] of the same compound?
**A.** The inhibition at 200 µM was 3%.

**Q.** What about the inhibition at 500 µM [4] of the same compound?
**A.** Its inhibition at 500 µM is 38%.

**Q.** What about the inhibition at 500 µM [5] of the same compound?
**A.** Its inhibition at 500 µM is 56%.

**Q.** And the inhibition at 500 µM [6]?
**A.** Its inhibition at 500 µM is 33%.

**Q.** And the inhibition at 500 µM [7]?
**A.** The inhibition at 500 µM was 25%.

**Q.** And the inhibition at 500 µM [8]?
**A.** Its inhibition at 500 µM is 12%.

**Q.** And the inhibition at 500 µM [9]?
**A.** Its inhibition at 500 µM is 12%.

**Q.** And the inhibition at 1000 µM [10]?
**A.** The inhibition at 1000 µM was 70%.

**Q.** And the inhibition at 1000 µM [11]?
**A.** Its inhibition at 1000 µM is 59%.

**Q.** And the inhibition at 1000 µM [12]?
**A.** The inhibition at 1000 µM was 62%.

**Q.** And the inhibition at 1000 µM [13]?
**A.** The inhibition at 1000 µM was 45%.

**Q.** What about the inhibition at 1000 µM [14] of the same compound?
**A.** Its inhibition at 1000 µM is 24%.

**Q.** What about the inhibition at 1000 µM [15] of the same compound?
**A.** The inhibition at 1000 µM was 19%.

**Q.** And the inhibition at 2000 µM [16]?
**A.** The inhibition at 2000 µM was 81%.

**Q.** And the inhibition at 2000 µM [17]?
**A.** Its inhibition at 2000 µM is 73%.

**Q.** What about the inhibition at 2000 µM [18] of the same compound?
**A.** The inhibition at 2000 µM was 67%.

**Q.** And the inhibition at 2000 µM [19]?
**A.** Its inhibition at 2000 µM is 47%.

**Q.** And the inhibition at 2000 µM [20]?
**A.** Its inhibition at 2000 µM is 33%.

**Q.** What about the inhibition at 2000 µM [21] of the same compound?
**A.** Its inhibition at 2000 µM is 27%.

**Q.** What about the inhibition at 1000 µM [22] of the same compound?
**A.** The inhibition at 1000 µM was 43%.

**Q.** What about the inhibition at 1000 µM [23] of the same compound?
**A.** Its inhibition at 1000 µM is 37%.

**Q.** And the inhibition at 1000 µM [24]?
**A.** The inhibition at 1000 µM was 29%.
